Source: US10934263B2, “Charged ion channel blockers and methods for use” (Nocion Therapeutics, Inc., priority 2019, dated 2021)

Experiments:
NaV1.7 = target: T1, NaV1.7 (Homo sapiens, UniProt Q15858); test: Whole cell patch clamp, internal block of NaV1.7 current (compound in internal solution); assay type: cell-based; settings: compound applied internally, manual patch clamp, read-out: Nav1.7 Intracellular Inhibition
T1 construct: expressed in transfected cells; tetracycline-inducible, kept under hygromycin and blasticidin
Protocol: Representative compounds of the invention were synthesized according to the described methods and tested for the ability to inhibit voltage-gated sodium channels.
NaV1.7 was expressed upon induction with tetracycline. Cells were cultured in DMEM containing 10% dialyzed Fetal Bovine Serum (VWR, Radnor, Pa.), 1% Glutamax (VWR, Radnor, Pa.), 1% Penicillin-Streptomycin (VWR, Radnor, Pa.), 100 mg/L Hygromycin (Thermo Fisher Scientific, Waltham, Mass. and 5 mg/L Blasticidin (Alfa Aesar, Haverhill, Mass.). Cells were grown and maintained at 37° C. in a humidified environment containing 10% CO2 in air. Cells were detached from the culture flask for passage and harvested using 0.05% Trypsin-EDTA (Thermo Fisher Scientific, Waltham, Mass.). To induce NaV1.7, cells were induced with tetracycline (0.1-1 μg/mL, IBI Scientific, Peosta, Iowa) the day before recording and plated onto 24-well plates. Cells were washed with DPBS (VWR, Radnor, Pa.), trypsinized and then triturated five times in 10 mL of growth media to break apart cell aggregates. For one 24-well plate, 2 mL of cell suspension was mixed with 23 mL of fresh growth media and 0.1-1 μg/mL tetracycline added. 1 ml of mixed media with cells was then added to each well of a 24-well plate, with a 12 mm coverslip already placed in the bottom of the well. Cells were then incubated in 37° C. and 10% CO2 overnight.
The intracellular solution contained the following (in mM) CsCl 135, NaCl 10, EGTA 10, HEPES 10, MgCl2 2, adjusted to pH 7.2 with CsOH. The external solution was a normal Ringer solution containing (in mM) NaCl 155, HEPES 10, glucose 10, KCl 3.5, CaCl2 1.5, MgCl2 1 adjusted to pH 7.4 with NaOH. CsCl is from Alfa Aesar, Haverhill, Mass. All other chemicals are from Sigma-Aldrich, St. Louis, Mo. In order to test the degree of internal block by test compounds the compounds were dissolved in internal solution at the indicated test concentration. […] In order to test the degree of external block by test compounds the compounds were dissolved in external solution at the indicated test concentration.
18-24 hours after cells were induced with tetracycline, coverslips were placed into a chamber filled with Normal Ringer solution at room temperature and the chamber placed on a microscope. Pipettes were pulled from borosilicate glass on a P97 puller (Sutter Instrument, Novato, Calif.) and polished with a MF-830 Microforge (Narishige International USA, Inc, Amityville, N.Y.) to have a resistance of 1.5-2.5 MΩ when filled with CsCl internal solution at room temperature. Healthy cells (those that are round and translucent with no visible blemishes) were chosen for seal formation. A seal was formed between the pipette and the cell, and a brief pulse of suction was used to “break in” and establish the whole-cell configuration. The membrane potential was held at −100 mV before the voltage protocol began. Only cells with series resistance between 1.5-5 MΩ were retained for analysis. The voltage protocol was as follows: Cells were held at −100 mV for 12 ms followed by a hyperpolarizing step to −105 mV for 12 ms to monitor the leak. Cells were then stepped back to −100 mV for 40 ms. Cells were then depolarized to −20 mV for 10 ms and then returned to −100 mV for 26 ms.
Once the recording was started, the voltage protocol was run at 30 second intervals for 5 minutes to get a stable baseline. This was followed by four 30-second periods of 5 Hz stimulation of the same voltage protocol separated by 1 minute of rest which was then followed by 0.33 Hz stimulation after the last train. Currents were recorded using PatchMaster software with Heka EPC10 (HEKA Electronics, Lambrecht, Germany). Only cells with inward current amplitudes at −20 mV between 400 pA and 4 nA were accepted. In addition, cells having leak currents greater than 10% of their current amplitudes were discarded. […]

[1] = PAMPA membrane permeability assay; assay type: in vitro ADME; settings: PAMPA permeability coefficient, GIT lipid, buffer pH 7.4, 4 hours incubation
Protocol: The PAMPA assay (pION, Inc., Woburn Mass.) was used to determine the ability of compounds of the invention to cross an artificial lipid membrane by passive diffusion. Test compounds were dissolved in DMSO (10 mM) and diluted 200-fold in buffer (pION Inc., pH 7.4) to provide 50 uM stock solutions. Buffer (150 μL) was added to a UV blank plate and stock solutions (150 μL) were transferred to a UV reference plate. The blank and reference spectrum were read using a spectrophotometer. Stock solutions (200 μL) were added to the donor plate of the PAMPA sandwich plate and an accept plate painted with GIT lipid (pION Inc, 5 μL) was placed on top. Buffer (200 μL) was added to the acceptor plate and the PAMPA sandwich plate was incubated for 4 hours. Aliquots (150 μL) from the acceptor plate were added to a UV plate and read as acceptor spectrum. Aliquots (150 μL) of the donor solutions were added to a UV analysis plate and read as donor spectrum. The permeability coefficient of test compounds was calculated using PAMPA Explorer™ software (version 3.5.0.4) based on the AUC of the reference plate, the donor plate, and the acceptor plate.

T1 sequence (Q15858 whole entry): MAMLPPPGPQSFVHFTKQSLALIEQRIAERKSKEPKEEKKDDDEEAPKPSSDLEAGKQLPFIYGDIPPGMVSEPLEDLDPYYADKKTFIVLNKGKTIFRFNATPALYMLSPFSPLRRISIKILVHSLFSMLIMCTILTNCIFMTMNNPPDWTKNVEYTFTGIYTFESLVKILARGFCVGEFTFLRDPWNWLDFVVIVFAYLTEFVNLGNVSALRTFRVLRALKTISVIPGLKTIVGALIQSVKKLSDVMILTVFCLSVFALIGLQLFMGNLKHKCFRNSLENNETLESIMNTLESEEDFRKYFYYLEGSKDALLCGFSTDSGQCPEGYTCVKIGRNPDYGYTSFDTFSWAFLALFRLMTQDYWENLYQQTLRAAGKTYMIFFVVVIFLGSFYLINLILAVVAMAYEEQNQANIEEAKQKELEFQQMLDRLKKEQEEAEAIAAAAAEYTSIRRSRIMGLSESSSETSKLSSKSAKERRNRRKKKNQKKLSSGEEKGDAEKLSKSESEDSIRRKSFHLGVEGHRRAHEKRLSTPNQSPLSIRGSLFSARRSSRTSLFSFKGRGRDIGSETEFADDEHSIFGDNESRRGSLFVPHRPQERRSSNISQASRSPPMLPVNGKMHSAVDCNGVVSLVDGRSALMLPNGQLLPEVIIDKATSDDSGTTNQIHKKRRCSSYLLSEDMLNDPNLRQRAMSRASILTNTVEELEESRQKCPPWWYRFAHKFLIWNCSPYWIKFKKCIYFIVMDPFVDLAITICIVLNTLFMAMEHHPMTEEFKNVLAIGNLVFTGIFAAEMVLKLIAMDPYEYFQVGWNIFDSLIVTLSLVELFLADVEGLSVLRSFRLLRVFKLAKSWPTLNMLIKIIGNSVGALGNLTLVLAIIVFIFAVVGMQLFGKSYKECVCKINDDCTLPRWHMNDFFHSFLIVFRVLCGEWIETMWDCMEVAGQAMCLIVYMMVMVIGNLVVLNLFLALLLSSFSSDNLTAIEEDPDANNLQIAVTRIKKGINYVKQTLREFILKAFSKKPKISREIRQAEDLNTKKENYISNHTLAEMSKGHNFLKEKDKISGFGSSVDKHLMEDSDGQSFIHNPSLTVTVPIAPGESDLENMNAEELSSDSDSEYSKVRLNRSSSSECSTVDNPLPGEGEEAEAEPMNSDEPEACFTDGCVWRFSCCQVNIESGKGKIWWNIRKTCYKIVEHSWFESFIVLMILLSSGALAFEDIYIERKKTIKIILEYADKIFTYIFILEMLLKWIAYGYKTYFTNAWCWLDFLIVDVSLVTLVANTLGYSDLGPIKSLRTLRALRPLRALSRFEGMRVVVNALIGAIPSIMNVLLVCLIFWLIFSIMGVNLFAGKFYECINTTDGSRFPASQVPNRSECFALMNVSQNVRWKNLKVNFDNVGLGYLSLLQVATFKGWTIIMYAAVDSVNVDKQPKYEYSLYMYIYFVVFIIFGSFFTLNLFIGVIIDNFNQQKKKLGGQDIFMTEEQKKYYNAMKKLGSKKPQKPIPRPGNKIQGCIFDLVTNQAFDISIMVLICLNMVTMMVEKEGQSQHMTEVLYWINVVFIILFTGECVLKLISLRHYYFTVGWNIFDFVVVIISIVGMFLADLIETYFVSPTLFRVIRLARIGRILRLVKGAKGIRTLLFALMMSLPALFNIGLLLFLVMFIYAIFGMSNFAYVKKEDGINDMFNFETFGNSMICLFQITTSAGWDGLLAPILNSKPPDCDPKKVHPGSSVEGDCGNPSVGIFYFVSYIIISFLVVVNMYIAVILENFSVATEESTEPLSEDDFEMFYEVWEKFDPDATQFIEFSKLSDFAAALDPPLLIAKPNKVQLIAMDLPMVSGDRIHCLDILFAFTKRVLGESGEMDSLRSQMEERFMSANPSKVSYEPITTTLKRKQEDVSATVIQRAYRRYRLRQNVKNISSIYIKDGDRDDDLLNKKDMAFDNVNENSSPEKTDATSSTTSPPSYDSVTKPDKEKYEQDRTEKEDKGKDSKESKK

| Compound | inhibition at 32 µM (NaV1.7) | PAMPA (10^−6 cm/s) [1] | inhibition at 10 µM (NaV1.7) |
| --- | --- | --- | --- |
| CCc1cc[n+](CC(=O)Nc2c(C)cccc2C)cc1 [Compound 19A] | 70 to 95% |  |  |
| Cc1cccc(C)c1NC(=O)C[n+]1cccc2ccccc21.[Br-] [Compound 18A] | > 95% | + (<0.1 10^−6 cm/s) |  |
| Cc1cccc(C)c1NC(=O)C[n+]1ccccc1.[Br-] [Compound 1A, 1-(2-((2,6-dimethylphenyl)amino)-2-oxoethyl) pyridin-1-ium bromide] | 70 to 95% | ++ (0.1-2.0 10^−6 cm/s) |  |
| Cc1cccc(C)c1NC(=O)C[n+]1cccc(C(C)C)c1 [Compound 31A] |  |  | 70 to 95% |
| Cc1cccc(C)c1NC(=O)C[n+]1ccn(C)c1.[Br-] [Compound 2A, 3-(2-((2,6-dimethylphenyl)amino)-2-oxoethyl)-1-methyl-1H-imidazol-3-ium bromide] | 40 to 70% | + (<0.1 10^−6 cm/s) |  |
| Cc1cc(F)cc(C)c1NC(=O)C[n+]1ccccc1.[Br-] [Compound 7A, 1-(2-((4-fluoro-2,6-dimethylphenyl)amino)-2-oxoethyl) pyridin-1-ium bromide] | < 40% | + (<0.1 10^−6 cm/s) |  |
| Cc1cccc(C)c1NC(=O)C[n+]1cc(-c2ccccc2)n(C)c1.[Br-] [Compound 24A] | 70 to 95% | + (<0.1 10^−6 cm/s) |  |
| Cc1cc(C#N)cc(C)c1NC(=O)C[n+]1ccccc1.[Br-] [Compound 11A, 1-(2-((4-cyano-2,6-dimethylphenyl)amino)-2-oxoethyl) pyridin-1-ium bromide] | < 40% | + (<0.1 10^−6 cm/s) |  |
| Cc1cccc(C)c1NC(=O)C[n+]1ccccc1C.[Br-] [Compound 5A, 1-(2-((2,6-dimethylphenyl)amino)-2-oxoethyl)-2-methylpyridin-1-ium bromide] | 70 to 95% | + (<0.1 10^−6 cm/s) |  |
| Cc1cccc(C)c1NC(=O)C[n+]1cccn1CC(C)C.[Br-] [Compound 27A] |  | + (<0.1 10^−6 cm/s) |  |
| Cc1cccc(C)c1NC(=O)C[n+]1cccc(C2CCCC2)c1.[Br-] [Compound 21A] | > 95% | + (<0.1 10^−6 cm/s) |  |
| Cc1cccc(C)c1NC(=O)C[n+]1ccc(-c2ccccc2)cc1.[Br-] [Compound 14A] | < 40% | + (<0.1 10^−6 cm/s) |  |
| Cc1cccc(C)c1NC(=O)C[n+]1cccc(C2CCCCC2)c1 [Compound 20A] | 70 to 95% |  |  |
| CCNC(=O)Cn1ccc[n+]1CC(=O)Nc1c(C)cccc1C.[Br-] [Compound 30A, 2-(2-((2,6-dimethylphenyl)amino)-2-oxoethyl)-1-(2-(ethylamino)-2-oxoethyl)-1H-pyrazol-2-ium bromide] |  | ++ (0.1-2.0 10^−6 cm/s) |  |
| Cc1cccc(C)c1NC(=O)C[n+]1cc2ccccn2c1 [Compound 35] |  |  | 40 to 70% |
| Cc1cc(Cl)cc(C)c1NC(=O)C[n+]1ccccc1.[Br-] [Compound 9A, 1-(2-((4-chloro-2,6-dimethylphenyl)amino)-2-oxoethyl) pyridin-1-ium bromide] | < 40% | + (<0.1 10^−6 cm/s) |  |
| COc1cc(C)c(NC(=O)C[n+]2ccccc2)c(C)c1.[Br-] [Compound 10A, 1-(2-((4-methoxy-2,6-dimethylphenyl)amino)-2-oxoethyl) pyridin-1-ium bromide] | < 40% | + (<0.1 10^−6 cm/s) |  |
| CCC(C(=O)Nc1c(C)cccc1C)[n+]1ccccc1.[Br-] (stereo not drawn) [Compound 3A, 1-(1-((2,6-dimethylphenyl)amino)-1-oxobutan-2-yl)pyridin-1-ium bromide] | 70 to 95% | ++ (0.1-2.0 10^−6 cm/s) |  |
| Cc1cc(C)c(NC(=O)C[n+]2ccccc2)c(C)c1.[Br-] [Compound 8A, 1-(2-(mesitylamino)-2-oxoethyl)pyridin-1-ium bromide] | < 40% | + (<0.1 10^−6 cm/s) |  |
| Cc1cccc(C)c1NC(=O)C[n+]1cccn1C1CCCCC1.[Br-] [Compound 28A] |  | + (<0.1 10^−6 cm/s) |  |

Next, values leading:

| inhibition at 32 µM (NaV1.7) | PAMPA (10^−6 cm/s) [1] | inhibition at 10 µM (NaV1.7) | Compound |
| --- | --- | --- | --- |
|  | + (<0.1 10^−6 cm/s) | 70 to 95% | Cc1cccc(C)c1NC(=O)C[n+]1ccn(C(C)(C)C)c1 [Compound 36] |
|  |  | 70 to 95% | Cc1cccc(C)c1NC(=O)C[n+]1ccn(-c2ccccc2)c1 [Compound 37] |
|  |  | 40 to 70% | Cc1cccc(C)c1NC(=O)C[n+]1ccnc(C)c1C [Compound 55] |
|  |  | 70 to 95% | Cc1ccc[n+](CC(=O)Nc2c(C)cccc2C)c1 [Compound 39] |
|  | + (<0.1 10^−6 cm/s) | 40 to 70% | CCCCCCn1cc[n+](CC(=O)Nc2c(C)cccc2C)c1 [Compound 63] |
|  |  | 70 to 95% | Cc1cccc(C)c1NC(=O)C[n+]1cccc(C#N)c1 [Compound 52] |
|  | + (<0.1 10^−6 cm/s) | < 40% | CCNC(=O)Cn1cc[n+](CC(=O)Nc2c(C)cccc2C)c1 [Compound 62] |
|  | +++ (2.0-10.010^−6 cm/s) | 40 to 70% | CCOC(=O)Cn1cc[n+](CC(=O)Nc2c(C)cccc2C)c1 [Compound 60] |
|  | + (<0.1 10^−6 cm/s) | 40 to 70% | Cc1cccc(C)c1NC(=O)C[n+]1cccc(C(=O)N(C)C)c1 [Compound 41] |
|  |  | 70 to 95% | CCCn1cc[n+](CC(=O)Nc2c(C)cccc2C)c1 [Compound 57] |
|  | + (<0.1 10^−6 cm/s) | 40 to 70% | Cc1cccc(C)c1NC(=O)C[n+]1ccn(C(C)C)c1 [Compound 58] |
|  |  | 40 to 70% | CCOC(=O)c1c[n+](CC(=O)Nc2c(C)cccc2C)cn1C [Compound 61] |
|  | ++ (0.1-2.0 10^−6 cm/s) |  | Cc1cccc(C)c1NC(=O)C[n+]1ccn(-c2ccc(Cl)cc2)c1 [Compound 64] |
|  | + (<0.1 10^−6 cm/s) | > 95% | CC(=O)Nc1ccc[n+](CC(=O)Nc2c(C)cccc2C)c1 [Compound 48] |
|  |  | 70 to 95% | Cc1cccc(C)c1NC(=O)C[n+]1ccn(Cc2ccccc2)c1 [Compound 38] |
|  |  | < 40% | Cc1cccc(C)c1NC(=O)C[n+]1cccc(O)c1 [Compound 42] |
|  |  | > 95% | Cc1cccc(C)c1OC(=O)C[n+]1cccn1C1CCCCC1 [Compound 111] |
|  |  | 70 to 95% | Cc1cccc(C)c1NC(=O)C[n+]1cccc(F)c1 [Compound 44] |
|  |  | 70 to 95% | Cc1cccc(C)c1NC(=O)C[n+]1cccc(Cl)c1 [Compound 45] |
|  |  | 70 to 95% | COc1ccc[n+](CC(=O)Nc2c(C)cccc2C)c1 [Compound 43] |
